Our source for the activity values is publication PMC6812009, “Covalent Aurora A regulation by the metabolic integrator coenzyme A” (Redox Biology, 2019).

Common to all, as to experiment: Kinase profiling screen (radioactive filter-binding assay)
Holding throughout (type): biochemical

For one test, the target named is MLK3 (Homo sapiens, UniProt Q16584). To be noted: 100 μM compound, 20 μM ATP; read-out: Kinase activity, % of activity in the absence of inhibitor. The method, boiled down:
(§1)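 Residual kinase activity is read in duplicate wells containing 100 μM final test compound (CoA, dpCoA or ADP). Recombinant kinases use model substrates at ATP levels optimal for each enzyme, across a 117-kinase screen.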

The target in a further test is T1, CHK1 (Homo sapiens, UniProt O14757).
T1 sequence (O14757 1-476): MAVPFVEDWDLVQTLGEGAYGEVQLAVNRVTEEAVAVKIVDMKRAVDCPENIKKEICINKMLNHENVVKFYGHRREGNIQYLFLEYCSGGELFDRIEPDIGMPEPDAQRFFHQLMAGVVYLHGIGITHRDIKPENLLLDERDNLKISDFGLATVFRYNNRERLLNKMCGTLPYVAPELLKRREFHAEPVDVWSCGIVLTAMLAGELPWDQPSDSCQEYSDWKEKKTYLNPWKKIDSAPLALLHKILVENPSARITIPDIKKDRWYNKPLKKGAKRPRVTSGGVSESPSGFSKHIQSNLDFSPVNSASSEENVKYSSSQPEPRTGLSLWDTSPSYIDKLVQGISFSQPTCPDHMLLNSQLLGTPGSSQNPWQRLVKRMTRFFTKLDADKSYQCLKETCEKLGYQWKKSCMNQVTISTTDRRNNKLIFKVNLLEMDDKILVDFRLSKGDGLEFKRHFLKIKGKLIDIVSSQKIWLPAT
To be noted: 100 μM compound, 20 μM ATP; read-out: Kinase activity, % of activity in the absence of inhibitor. In outline: as §1

For a further test, the target named is T2, IRAK4 (Homo sapiens, UniProt Q9NWZ3).
T2 sequence (Q9NWZ3 1-460): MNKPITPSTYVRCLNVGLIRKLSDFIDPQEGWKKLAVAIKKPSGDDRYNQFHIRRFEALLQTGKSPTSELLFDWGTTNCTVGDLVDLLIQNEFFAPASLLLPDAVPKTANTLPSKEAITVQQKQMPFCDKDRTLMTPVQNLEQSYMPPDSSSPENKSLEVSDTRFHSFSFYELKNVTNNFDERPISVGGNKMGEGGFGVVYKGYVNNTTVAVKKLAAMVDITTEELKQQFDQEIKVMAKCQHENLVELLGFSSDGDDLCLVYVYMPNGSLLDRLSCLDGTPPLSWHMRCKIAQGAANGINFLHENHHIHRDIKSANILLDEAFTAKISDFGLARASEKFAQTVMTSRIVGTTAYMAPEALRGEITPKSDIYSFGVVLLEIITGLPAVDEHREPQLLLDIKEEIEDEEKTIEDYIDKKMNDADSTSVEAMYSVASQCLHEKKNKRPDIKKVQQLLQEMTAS
To be noted: 100 μM compound, 20 μM ATP; read-out: Kinase activity, % of activity in the absence of inhibitor. The method, boiled down: as §1

A further test has as its target MLK1 (Homo sapiens, UniProt P80192). The conditions noted are these: 100 μM compound, 20 μM ATP; read-out: Kinase activity, % of activity in the absence of inhibitor. The method, boiled down: as §1
For a further test, the target named is DYRK1A (Homo sapiens, UniProt Q13627). To be noted: 100 μM compound, 50 μM ATP; read-out: Kinase activity, % of activity in the absence of inhibitor. In outline:
as §1

For the next test, the target named is TIE2 (Homo sapiens, UniProt Q02763). To be noted: 100 μM compound, 20 μM ATP; read-out: Kinase activity, % of activity in the absence of inhibitor. The method, boiled down:
as §1

Another test concerns the target RSK1 (Homo sapiens, UniProt Q15418). To be noted: 100 μM compound, 50 μM ATP; read-out: Kinase activity, % of activity in the absence of inhibitor. In outline: as §1
A further test deals with MINK1 (Homo sapiens, UniProt Q8N4C8). To be noted: 100 μM compound, 50 μM ATP; read-out: Kinase activity, % of activity in the absence of inhibitor. In outline:
as §1

The next test deals with T3, LKB1 (Homo sapiens, UniProt Q15831).
T3 sequence (Q15831 1-433): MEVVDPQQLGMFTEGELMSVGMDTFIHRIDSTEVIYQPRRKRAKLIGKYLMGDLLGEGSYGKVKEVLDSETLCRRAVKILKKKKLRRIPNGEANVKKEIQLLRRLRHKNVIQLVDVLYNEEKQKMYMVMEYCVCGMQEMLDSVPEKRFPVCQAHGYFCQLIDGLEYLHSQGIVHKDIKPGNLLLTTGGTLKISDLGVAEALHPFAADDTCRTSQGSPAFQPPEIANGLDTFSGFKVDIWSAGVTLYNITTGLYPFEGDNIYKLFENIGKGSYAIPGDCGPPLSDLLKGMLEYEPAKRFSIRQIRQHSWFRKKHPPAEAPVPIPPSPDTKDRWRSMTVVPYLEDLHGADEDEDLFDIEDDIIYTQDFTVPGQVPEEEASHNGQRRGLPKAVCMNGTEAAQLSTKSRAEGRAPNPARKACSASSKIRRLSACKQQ
T3 sequence (Q7RTN6 1-431 partner): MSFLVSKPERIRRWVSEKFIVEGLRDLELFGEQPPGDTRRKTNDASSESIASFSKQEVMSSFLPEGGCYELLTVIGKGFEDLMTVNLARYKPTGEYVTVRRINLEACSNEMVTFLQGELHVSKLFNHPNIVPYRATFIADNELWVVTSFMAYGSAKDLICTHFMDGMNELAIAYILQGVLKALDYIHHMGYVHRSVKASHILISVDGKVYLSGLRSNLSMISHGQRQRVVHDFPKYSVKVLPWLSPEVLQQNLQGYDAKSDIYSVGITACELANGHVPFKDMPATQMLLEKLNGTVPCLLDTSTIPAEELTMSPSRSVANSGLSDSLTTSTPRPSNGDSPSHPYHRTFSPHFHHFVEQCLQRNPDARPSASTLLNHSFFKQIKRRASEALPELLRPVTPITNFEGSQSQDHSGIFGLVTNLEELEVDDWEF
T3 sequence (Q9Y376 1-341 partner): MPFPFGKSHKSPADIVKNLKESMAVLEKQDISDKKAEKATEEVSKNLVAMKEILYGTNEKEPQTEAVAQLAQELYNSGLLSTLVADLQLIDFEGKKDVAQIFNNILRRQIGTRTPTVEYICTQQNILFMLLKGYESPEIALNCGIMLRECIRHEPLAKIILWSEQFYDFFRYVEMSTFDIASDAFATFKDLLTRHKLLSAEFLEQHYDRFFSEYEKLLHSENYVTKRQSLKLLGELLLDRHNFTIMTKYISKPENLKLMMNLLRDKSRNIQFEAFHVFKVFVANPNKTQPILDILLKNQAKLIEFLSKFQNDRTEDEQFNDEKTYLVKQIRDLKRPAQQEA
To be noted: 100 μM compound, 20 μM ATP; read-out: Kinase activity, % of activity in the absence of inhibitor. The method, boiled down: as §1

Sequence of MLK3 (Q16584 whole entry): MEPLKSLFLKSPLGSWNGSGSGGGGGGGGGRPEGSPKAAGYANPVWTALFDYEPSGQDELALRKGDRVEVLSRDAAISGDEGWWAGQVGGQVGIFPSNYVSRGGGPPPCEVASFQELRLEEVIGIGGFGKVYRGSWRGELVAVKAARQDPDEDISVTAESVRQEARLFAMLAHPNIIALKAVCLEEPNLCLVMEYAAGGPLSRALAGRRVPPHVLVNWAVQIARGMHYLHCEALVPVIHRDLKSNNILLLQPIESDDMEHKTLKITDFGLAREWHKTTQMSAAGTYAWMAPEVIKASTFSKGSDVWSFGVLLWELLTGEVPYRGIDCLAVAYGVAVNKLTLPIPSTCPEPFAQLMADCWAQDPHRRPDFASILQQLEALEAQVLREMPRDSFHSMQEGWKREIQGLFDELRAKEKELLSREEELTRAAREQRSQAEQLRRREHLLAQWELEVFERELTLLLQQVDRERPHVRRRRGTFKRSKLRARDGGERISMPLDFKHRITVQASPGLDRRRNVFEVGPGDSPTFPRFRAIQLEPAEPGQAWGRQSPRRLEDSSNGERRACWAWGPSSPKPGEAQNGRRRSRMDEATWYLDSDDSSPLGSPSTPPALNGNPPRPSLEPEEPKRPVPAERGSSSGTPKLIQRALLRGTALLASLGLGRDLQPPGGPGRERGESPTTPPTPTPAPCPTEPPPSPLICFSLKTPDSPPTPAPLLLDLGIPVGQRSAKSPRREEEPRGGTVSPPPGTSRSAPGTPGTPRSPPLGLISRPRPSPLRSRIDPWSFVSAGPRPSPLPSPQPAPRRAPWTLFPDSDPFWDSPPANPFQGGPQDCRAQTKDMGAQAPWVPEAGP
Sequence of TIE2 (Q02763 23-1124): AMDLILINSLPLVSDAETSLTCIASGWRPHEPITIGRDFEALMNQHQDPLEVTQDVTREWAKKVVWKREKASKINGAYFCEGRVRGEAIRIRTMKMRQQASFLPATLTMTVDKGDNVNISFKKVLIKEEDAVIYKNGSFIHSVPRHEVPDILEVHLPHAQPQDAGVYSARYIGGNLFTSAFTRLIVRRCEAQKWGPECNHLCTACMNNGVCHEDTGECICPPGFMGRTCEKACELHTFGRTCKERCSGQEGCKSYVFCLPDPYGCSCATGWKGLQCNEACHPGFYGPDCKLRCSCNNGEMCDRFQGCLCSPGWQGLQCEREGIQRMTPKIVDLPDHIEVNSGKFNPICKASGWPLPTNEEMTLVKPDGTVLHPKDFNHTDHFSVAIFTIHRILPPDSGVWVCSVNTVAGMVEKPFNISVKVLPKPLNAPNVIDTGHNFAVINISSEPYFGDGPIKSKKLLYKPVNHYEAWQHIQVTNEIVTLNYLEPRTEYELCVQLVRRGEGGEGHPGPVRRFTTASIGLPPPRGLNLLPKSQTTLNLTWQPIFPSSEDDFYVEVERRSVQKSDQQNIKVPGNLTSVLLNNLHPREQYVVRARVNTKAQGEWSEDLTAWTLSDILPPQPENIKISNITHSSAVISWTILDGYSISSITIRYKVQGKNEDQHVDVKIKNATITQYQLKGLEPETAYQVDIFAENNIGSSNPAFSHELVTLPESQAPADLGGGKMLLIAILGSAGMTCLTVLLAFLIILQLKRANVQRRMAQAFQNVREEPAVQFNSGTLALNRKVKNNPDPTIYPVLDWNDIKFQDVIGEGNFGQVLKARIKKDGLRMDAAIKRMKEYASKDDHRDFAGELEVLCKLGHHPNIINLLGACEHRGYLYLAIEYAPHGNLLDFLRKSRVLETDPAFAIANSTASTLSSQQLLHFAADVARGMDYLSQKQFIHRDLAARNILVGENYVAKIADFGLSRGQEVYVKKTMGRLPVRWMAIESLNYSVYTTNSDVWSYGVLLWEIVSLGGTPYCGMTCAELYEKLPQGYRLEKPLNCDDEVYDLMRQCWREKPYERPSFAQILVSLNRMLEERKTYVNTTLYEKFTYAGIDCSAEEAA
Sequence of MINK1 (Q8N4C8 whole entry): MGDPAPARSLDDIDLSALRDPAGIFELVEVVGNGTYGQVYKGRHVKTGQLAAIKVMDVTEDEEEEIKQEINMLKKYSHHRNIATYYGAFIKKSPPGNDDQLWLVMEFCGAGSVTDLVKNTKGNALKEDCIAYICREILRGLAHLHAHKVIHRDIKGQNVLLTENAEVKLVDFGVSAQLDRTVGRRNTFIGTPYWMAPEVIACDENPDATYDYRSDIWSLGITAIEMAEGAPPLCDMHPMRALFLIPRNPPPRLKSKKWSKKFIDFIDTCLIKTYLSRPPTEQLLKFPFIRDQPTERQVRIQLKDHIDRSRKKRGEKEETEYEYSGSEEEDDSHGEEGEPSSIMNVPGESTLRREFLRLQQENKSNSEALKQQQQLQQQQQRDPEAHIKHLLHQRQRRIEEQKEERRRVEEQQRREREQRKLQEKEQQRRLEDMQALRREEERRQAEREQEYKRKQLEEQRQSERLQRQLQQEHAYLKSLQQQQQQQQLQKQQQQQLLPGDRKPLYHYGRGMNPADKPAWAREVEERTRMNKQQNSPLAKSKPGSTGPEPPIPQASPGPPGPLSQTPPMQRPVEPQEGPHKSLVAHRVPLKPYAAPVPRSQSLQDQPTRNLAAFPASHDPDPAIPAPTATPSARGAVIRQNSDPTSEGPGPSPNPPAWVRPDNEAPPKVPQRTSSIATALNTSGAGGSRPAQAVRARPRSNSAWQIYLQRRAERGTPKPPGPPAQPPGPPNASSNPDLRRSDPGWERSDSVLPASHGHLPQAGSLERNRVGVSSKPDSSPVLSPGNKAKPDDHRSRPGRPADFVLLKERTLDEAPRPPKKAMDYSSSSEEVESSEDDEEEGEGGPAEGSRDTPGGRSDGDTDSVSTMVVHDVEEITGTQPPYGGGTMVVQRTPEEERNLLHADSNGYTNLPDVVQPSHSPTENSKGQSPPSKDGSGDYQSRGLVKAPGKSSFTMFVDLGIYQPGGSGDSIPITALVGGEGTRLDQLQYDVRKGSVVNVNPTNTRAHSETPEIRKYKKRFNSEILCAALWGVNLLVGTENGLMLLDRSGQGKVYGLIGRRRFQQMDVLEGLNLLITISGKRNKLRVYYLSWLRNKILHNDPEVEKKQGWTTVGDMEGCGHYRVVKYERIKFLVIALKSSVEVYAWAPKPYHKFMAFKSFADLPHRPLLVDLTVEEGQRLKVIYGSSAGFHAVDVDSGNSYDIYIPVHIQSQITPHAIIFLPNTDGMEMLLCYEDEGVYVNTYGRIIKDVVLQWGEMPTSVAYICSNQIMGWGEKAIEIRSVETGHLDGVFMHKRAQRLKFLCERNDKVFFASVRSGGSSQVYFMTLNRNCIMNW
Sequence of MLK1 (P80192 whole entry): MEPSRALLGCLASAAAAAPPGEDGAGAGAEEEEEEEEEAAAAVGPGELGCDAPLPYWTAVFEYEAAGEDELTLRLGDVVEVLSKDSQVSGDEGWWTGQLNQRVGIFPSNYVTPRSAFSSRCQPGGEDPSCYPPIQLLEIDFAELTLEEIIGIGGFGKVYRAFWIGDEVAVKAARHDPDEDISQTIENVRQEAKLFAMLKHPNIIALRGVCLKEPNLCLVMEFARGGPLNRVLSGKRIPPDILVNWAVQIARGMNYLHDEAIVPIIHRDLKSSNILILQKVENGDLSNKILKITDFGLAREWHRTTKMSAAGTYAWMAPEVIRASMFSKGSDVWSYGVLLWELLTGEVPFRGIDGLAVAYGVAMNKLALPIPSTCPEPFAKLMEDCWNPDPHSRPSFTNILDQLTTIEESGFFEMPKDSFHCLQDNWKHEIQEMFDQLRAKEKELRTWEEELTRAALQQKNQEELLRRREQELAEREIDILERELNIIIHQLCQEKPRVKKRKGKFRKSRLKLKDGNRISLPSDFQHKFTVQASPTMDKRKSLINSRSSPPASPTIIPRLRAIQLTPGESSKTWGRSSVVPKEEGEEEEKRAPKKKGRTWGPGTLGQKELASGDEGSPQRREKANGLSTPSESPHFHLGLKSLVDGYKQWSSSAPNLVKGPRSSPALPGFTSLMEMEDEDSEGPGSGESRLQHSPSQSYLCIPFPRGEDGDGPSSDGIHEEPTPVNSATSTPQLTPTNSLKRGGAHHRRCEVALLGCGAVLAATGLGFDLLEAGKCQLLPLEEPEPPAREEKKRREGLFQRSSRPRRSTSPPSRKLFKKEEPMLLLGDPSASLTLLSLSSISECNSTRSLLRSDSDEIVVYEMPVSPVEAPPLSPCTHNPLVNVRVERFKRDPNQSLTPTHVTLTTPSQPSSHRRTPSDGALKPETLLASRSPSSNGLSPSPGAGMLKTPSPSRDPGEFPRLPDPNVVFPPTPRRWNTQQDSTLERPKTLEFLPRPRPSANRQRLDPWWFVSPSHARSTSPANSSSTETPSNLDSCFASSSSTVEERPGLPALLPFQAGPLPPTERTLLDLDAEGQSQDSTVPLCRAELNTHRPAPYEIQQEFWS
Sequence of RSK1 (Q15418 whole entry): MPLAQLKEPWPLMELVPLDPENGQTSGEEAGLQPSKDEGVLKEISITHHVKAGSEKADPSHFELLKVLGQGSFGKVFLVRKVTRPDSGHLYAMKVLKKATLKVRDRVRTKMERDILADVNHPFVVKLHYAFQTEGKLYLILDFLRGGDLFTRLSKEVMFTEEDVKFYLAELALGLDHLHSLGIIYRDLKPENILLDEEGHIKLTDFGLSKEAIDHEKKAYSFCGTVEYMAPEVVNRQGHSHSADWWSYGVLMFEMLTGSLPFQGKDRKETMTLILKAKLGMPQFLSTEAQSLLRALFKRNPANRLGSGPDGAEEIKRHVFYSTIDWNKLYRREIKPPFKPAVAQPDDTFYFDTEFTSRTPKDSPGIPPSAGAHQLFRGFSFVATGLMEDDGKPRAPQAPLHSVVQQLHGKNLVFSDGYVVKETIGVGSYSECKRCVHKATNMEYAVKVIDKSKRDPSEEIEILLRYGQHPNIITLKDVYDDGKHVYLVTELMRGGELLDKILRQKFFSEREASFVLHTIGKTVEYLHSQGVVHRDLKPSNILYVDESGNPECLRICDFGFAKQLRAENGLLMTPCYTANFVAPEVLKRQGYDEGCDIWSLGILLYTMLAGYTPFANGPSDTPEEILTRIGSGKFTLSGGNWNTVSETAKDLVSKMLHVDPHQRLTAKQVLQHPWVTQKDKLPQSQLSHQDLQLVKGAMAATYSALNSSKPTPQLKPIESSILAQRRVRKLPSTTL

For `Nc1ncnc2c1ncn2C1OC(COP(=O)(O)OP(=O)(O)O)C(O)C1O` (stereo not drawn) [ADP], the activity at 100 µM at MLK3 came to 46.8%; on CHK1, 47.6%; at IRAK4, 82.1%; on MLK1, 41.4%; at DYRK1A it was 75.9%; on TIE2 it was 33.1%. Also, the results for the activity at 100 µM at RSK1, on MINK1 and on LKB1 were 58.5%, 49.4% and 71%, respectively.

With `CC(C)(COP(=O)(O)OP(=O)(O)OC[C@H]1O[C@@H](n2cnc3c(N)ncnc32)[C@H](O)[C@@H]1OP(=O)(O)O)[C@@H](O)C(=O)NCCC(=O)NCCS` [CoA, Coenzyme A], the activity at 100 µM turned out to be 70.2% on MLK3; 123% at CHK1; 89.1% at IRAK4; 110% at MLK1; 93.1% on DYRK1A; 93% on TIE2. Besides, the figures for the activity at 100 µM on RSK1, on MINK1 and at LKB1 were 97.2%, 106% and 103%, respectively.

For the compound `CC(C)(COP(=O)(O)OP(=O)(O)OCC1OC(n2cnc3c(N)ncnc32)C(O)C1O)C(O)C(=O)NCCC(=O)NCCS` (stereo not drawn) [dpCoA, dephospho-CoA], the activity at 100 µM was determined as 61.9% at MLK3; 78.8% at CHK1; 74.8% at IRAK4; 76% on MLK1; 90.2% at DYRK1A; 83.4% on TIE2. Moreover, the results for the activity at 100 µM on RSK1, at MINK1 and at LKB1 were 98.9%, 104% and 81.1%, respectively.
